Earlier results, collected in patent US7014865B1, “Natural formulation for the treatment and prevention of depression, containing St. John's Wort and derivatives of dihydro- and tetrahydrofolic acid” (Merck Patent GmbH, priority 1998, dated 2006).

Experiments:
Details in all cases: in vitro
uptake of GABA = test system: uptake of GABA
uptake of dopamine = test system: uptake of dopamine
uptake of serotonin = test system: uptake of serotonin
uptake of L-glutamate = test system: uptake of L-glutamate
uptake of noradrenaline = test system: uptake of noradrenaline

hyperforin
potent inhibitor: inhibition of uptake of GABA (uptake of GABA) | inhibition of uptake of dopamine (uptake of dopamine) | inhibition of uptake of serotonin (uptake of serotonin) | inhibition of uptake of L-glutamate (uptake of L-glutamate) | inhibition of uptake of noradrenaline (uptake of noradrenaline)
